Type in all cases: cell-based
Assay [1] deals with Panc-1 Human pancreatic carcinoma cell-line. In words: XTT cytotoxicity, Panc-1 pancreatic carcinoma cells. Conditions: Panc-1, XTT, 72 hr. Here is the method:
The piperazine-derivatives were prepared as a stock of 50 mM in 100% DMSO (dimethyl sulfoxide). […] Each experimental point was performed in triplicates. Vehicle (DMSO)-treated cells were used as control. Dilutions were performed in culture medium and DMSO so that the final concentration of DMSO in each well was 0.5%.
(§1) Optical density representing viable cells was determined using the XTT Cell Proliferation Kit assay (sodium 2,3,-bis(2-methoxy-4-nitro-5-sulfophenyl)-5-[(phenylamino)-carbonyl]-2H-tetrazolium inner salt, Biological industries, Beit-Haemek, Israel).
(§2) Percentage of Optical density is directly proportional to the number of living cells in culture. Cytotoxicity (%) was calculated in the following way: [(OD of drug-treated cells-OD of background)/(OD of control cells-OD of background)]×100.
(§3) New piperazine derivatives were tested for cytotoxicity in 4 cancer cell lines:
D) Panc-1—Human pancreatic carcinoma cell-line

The subject of a further assay is PC3 prostate cancer line. The assay is described as follows: Cytotoxicity, PC3 prostate cancer cells. As to conditions: 25 mM glucose, 1500 cell/well, 10% FCS, 72 hours, read-out: IC50 (μM), prostate cancer cell line (Table 4).
Assay [2] has as its system HCT116 Human colon carcinoma cell-line. The assay is described as follows: XTT cytotoxicity, HCT116 colon carcinoma cells. Conditions: HCT-116, 72 hr. How it is done: (§4) The piperazine-derivatives were prepared as a stock of 50 mM in 100% DMSO (dimethyl sulfoxide). Piperazine-derivatives were added at concentration ranging from 0.03-10 uM for 72 hours. Each experimental point was performed in triplicates. Vehicle (DMSO)-treated cells were used as control. Dilutions were performed in culture medium and DMSO so that the final concentration of DMSO in each well was 0.5%.
as §1, §2, §3
A) HCT116—Human colon carcinoma cell-line
For orientation: Tetrazolium assays rely on reduction of a dye to a coloured formazan, in cell work by metabolically active cells.

The test system of assay [3] is Hela Human cervix adenocarcinoma cell-line. The assay is described as follows: XTT cytotoxicity, Hela cervix adenocarcinoma cells. Conditions: 72 hr. Here is the method: as §4, §1, §2, §3
B) Hela—Human cervix adenocarcinoma cell-line

In assay [4] the test system is H358 Human lung carcinoma cell-line. The assay is described as follows: XTT cytotoxicity, H358 lung carcinoma cells. Here is the method:
as §4, §1, §2, §3
C) H358—Human lung carcinoma cell-line
New piperazine derivatives (compounds of Formula (IV)) were tested for cytotoxicity in the H358 human lung carcinoma cell line. Table 2 below provides IC50 values for the tested compounds.
New piperazine derivatives (compounds of Formula (V)) were tested for cytotoxicity in the H358 human lung carcinoma cell line. Table 3 below provide IC50 values for the tested compounds.

[5] abbreviates: NCI-H358, H358, XTT, 72 hr (Table 1), read-out: IC50 (XTT, 72 hr) Lung H358.
The mark [6] stands for this setting: NCI-H358, H358 lung cancer line, 11.5 mM glucose, 5000 cell/well, 0.5% FCS, 72 hours, read-out: IC50 (μM), lung cancer cell line (Table 2).
The mark [7] stands for this setting: NCI-H358, H358 lung cancer line, 11.5 mM glucose, 5000 cell/well, 0.5% FCS, 72 hours, read-out: IC50 (μM), lung cancer cell line (Table 3).

We go through 12 molecules from patent US11084807B2, “Piperazine derivatives, pharmaceutical compositions and methods of use thereof” (Vidac Pharma Ltd., priority 2016, dated 2021).

Like-named read-outs stand apart in the source and are kept apart here. A value given as a limit tells only on which side of the number the result lay.

The IC50 is the concentration needed to halve the response being measured.

In the case of `O=C(N1CCN(c2ccccc2)CC1)N1c2ccccc2Oc2ccccc21` [Compound 1], the IC50 turned out to be 10 nM in assay [1]; 0.026 µM in the assay with PC3 prostate cancer line; 10 nM in assay [2]; 15 nM in assay [3]; 0.05 µM in assay [4] (setting [5]); 0.025 µM in assay [4] (setting [6]).
As for `O=C(N1CCN(c2c(F)c(F)c(F)c(F)c2F)CC1)N1c2ccccc2Oc2ccccc21` [Compound 2], the 50% inhibitory concentration (IC50) in assay [1] is over 30000 nM; in assay [3], 1900 nM; in assay [4] (setting [6]), over 10 µM.
Turning to `O=C(C1c2ccccc2Sc2ccccc21)N1CCN(c2ccccc2)CC1` [Compound 3], the concentration for half-maximal inhibition (IC50) in assay [1] was 310 nM; in assay [2], 640 nM; in assay [3], 500 nM; in assay [4] (setting [5]) it was 1.35 µM; in assay [4] (setting [6]) it was 0.43 µM.
For `O=C(N1CCN(c2c(F)cccc2F)CC1)N1c2ccccc2Oc2ccccc21` [Compound 5], in that order: 900 nM, 1080 nM, 400 nM, 0.84 µM and 0.265 µM.
On to `COc1cccc(N2CCN(C(=O)N3c4ccccc4Oc4ccccc43)CC2)c1` [Compound 11], for which the concentration for half-maximal inhibition (IC50) in assay [4] (setting [6]) was found to be 0.0047 µM.
For the molecule `COc1ccccc1N1CCN(C(=O)N2c3ccccc3Oc3ccccc32)CC1` [Compound 12], in assay [4] (setting [6]), the half-inhibitory concentration (IC50) stood at 0.0066 µM.
On the same count and under the same terms, the figure for `O=C(N1CCN(c2cc(F)cc(F)c2)CC1)N1c2ccccc2Oc2ccccc21` [Compound 13] is 0.0067 µM.
As for `O=C(N1CCN(c2ccc(O)cc2)CC1)N1c2ccccc2Oc2ccccc21` [Compound 14], in assay [4] (setting [6]), the IC50 was found to be 0.051 µM.
On the same count and under the same terms, the figure for `O=C(N1CCN(c2ccc(F)cc2)CC1)N1c2ccccc2Oc2ccccc21` [Compound 15] is 0.24 µM; for `O=C(N1CCC(c2ccccc2)CC1)N1c2ccccc2Oc2ccccc21` [Compound 16] it is 1.37 µM.
For the molecule `O=C(N1CCN(c2ccccc2)CC1)n1c2ccccc2c2ccccc21` [Compound 20], the IC50 in assay [4] (setting [7]) is 0.027 µM.
As for `O=C(N1CCN(c2cc(F)cc(F)c2)CC1)n1c2ccccc2c2ccccc21` [Compound 23], the values for the concentration for half-maximal inhibition (IC50) (with PC3 prostate cancer line; in assay [4] (setting [7])) were 0.08 µM and 0.009 µM, respectively.
